Values of other authors as cited in PMC7941644, “Identification and Development of Therapeutics for COVID-19” (ArXiv, 2021).
Structures can show the parent of a compound that is named as a salt. Where two headings read alike, the source gives them in different places.

Key:
SARS-CoV-2 [1] = tested on: SARS-CoV-2; design: method as in PMID 32142651; settings: lung cells in vitro
IL-10 = tested on: IL-10; design: method as in PMID 8902882
COVID-19 [2] = tested on: COVID-19; design: method as in doi:10.1101/2020.06.22.20137273
IL-12 = tested on: IL-12; design: method as in PMID 8902882
SARS-CoV-2 [3] = tested on: SARS-CoV-2
COVID-19 [4] = tested on: COVID-19; design: method as in ref 145 = [145]; 145. August 6, 2021: Early Treatment of COVID-19 with Repurposed Therapies: The TOGETHER Adaptive Platform Trial (Edward Mills, PhD, FRCP) Rethinking Clinical Trials ( 2021 - 08 - 11 ) https://rethink; settings: placebo group 107; preliminary analysis as of August 6, 2021
COVID-19 [5] = settings: ivermectin preliminary; HCQ and lopinavir-ritonavir ref 144
COVID-19 [6] = tested on: COVID-19; design: method as in PMID 33065103
COVID-19 [7] = tested on: COVID-19; design: method as in PMID 33175880
SARS-CoV-2 [8] = tested on: SARS-CoV-2; design: method as in PMID 32251768; settings: Vero-hSLAM; at concentrations much higher than existing dosage guidelines
COVID-19 [9] = tested on: COVID-19; design: method as in PMID 33662102; settings: 400 patients
COVID-19 [10] = tested on: COVID-19; design: method as in PMID 32821939; settings: moderate COVID-19
SARS-CoV-1 [11] = settings: cell culture assays
MERS-CoV = settings: cell culture assays
COVID-19 [12] = tested on: COVID-19; design: method as in PMID 32275812; settings: of the 53 patients evaluated; 200 mg IV day 1, 100 mg/day for 9 days; no control group
COVID-19 [13] = tested on: COVID-19
COVID-19 [14] = tested on: COVID-19; design: method as in PMID 32445440
COVID-19 [15] = tested on: COVID-19; remark: listed apart in the source
COVID-19 [16] = tested on: COVID-19; remark: listed apart in the source
COVID-19 [17] = tested on: COVID-19; remark: listed apart in the source
COVID-19 [18] = settings: p < 0.001
COVID-19 [19] = tested on: COVID-19; remark: listed apart in the source
COVID-19 [20] = tested on: COVID-19; remark: listed apart in the source
COVID-19 [21] = settings: 95% CI 0.376–0.547, p < 0.001
COVID-19 [22] = settings: significant when intubated patients excluded
COVID-19 [23] = tested on: COVID-19; design: method as in ref 210; combination ref 208; settings: phase 2 portion; bamlanivimab alone ref 210; combination ref 208
COVID-19 [24] = tested on: COVID-19; design: method as in PMID 33031764
SARS-CoV-1 [25] = settings: mouse, in vivo

Compound: CN(C)C(=O)COC(=O)Cc1ccc(OC(=O)c2ccc(NC(=N)N)cc2)cc1 [camostat mesylate]
- block of viral entry (SARS-CoV-2 [1]): block the entry of SARS-CoV-2 into lung cells

Compound: C[C@@H]1C[C@H]2[C@@H]3CCC4=CC(=O)C=C[C@]4(C)[C@@]3(F)[C@@H](O)C[C@]2(C)[C@@]1(O)C(=O)CO [dexamethasone, 9α-fluoro-16α-methylprednisolone]
- effect on IL-10 (IL-10): not to affect IL-10
- 28-day mortality rate (COVID-19 [2]; all patients, 6 mg per day for up to 10 days, SOC 24.6%, p < 0.001): 21.6%
- 28-day mortality (COVID-19 [2]; patients breathing independently at randomization, SOC 14.0%): 17.8%
- 28-day mortality (COVID-19 [2]; patients receiving oxygen supplementation at randomization, SOC 26.2%): 23.3%
- 28-day mortality (COVID-19 [2]; patients ventilated at randomization, SOC 41.4%): 29.3%
- effect on IL-12 production (IL-12): dose-dependent inhibition of IL-12 production

Compound: O=c1c2ccccc2[se]n1-c1ccccc1 [ebselen]
- antiviral effect in SARS-CoV-2-infected Vero cells (SARS-CoV-2 [3]): strongest potency in reducing the viral load

Compound: COCCCC/C(=N\OCCN)c1ccc(C(F)(F)F)cc1 [fluvoxamine]
- patients progressed to hospitalization for COVID-19 (COVID-19 [4]): 74

Compound: CC[C@H](C)[C@H]1O[C@]2(CC[C@@H]1C)C[C@@H]1C[C@@H](C/C=C(\C)[C@@H](O[C@H]3C[C@H](OC)[C@@H](O[C@H]4C[C@H](OC)[C@@H](O)[C@H](C)O4)[C@H](C)O3)[C@@H](C)/C=C/C=C3\CO[C@@H]4[C@H](O)C(C)=C[C@@H](C(=O)O1)[C@]34O)O2 [ivermectin]
- effect on COVID-19 outcomes (COVID-19 [5]): no effect on COVID-19 outcomes
- all-cause mortality (COVID-19 [6]): reduced all-cause mortality
- clinical outcomes or viral clearance (COVID-19 [7]): no difference in clinical outcomes or viral clearance
- inhibition of viral replication (SARS-CoV-2 [8]): inhibit viral replication
- duration of symptoms (COVID-19 [9]): no effect on the duration of symptoms

Compound: CCC(CC)COC(=O)[C@H](C)N[P@](=O)(OC[C@H]1O[C@@](C#N)(c2ccc3c(N)ncnn23)[C@H](O)[C@@H]1O)Oc1ccccc1 [remdesivir]
- effect of treatment for five days relative to standard of care (COVID-19 [10]): small effect of treatment
- IC50, polymerase and replication (SARS-CoV-1 [11]): submicromolar
- IC50, polymerase and replication (MERS-CoV): submicromolar
- clinical improvement (COVID-19 [12]): 68%
- patients who died during initial hospitalization (COVID-19 [13]; 2,750 patients in remdesivir group, control 303 of 2,708): 301
- overall rate ratio for death (COVID-19 [13]; meta-analysis of Solidarity and three other remdesivir studies, p = 0.20): 0.91
- rate ratio of in-hospital death (COVID-19 [13]; vs control, no placebo): 0.95
- hazard ratio for death by 14 days (COVID-19 [14]; 95% CI 0.36 to 0.83): 0.55
- hazard ratio for death at day 29 (COVID-19 [14]; 95% CI 0.52 to 1.03): 0.73
- rate ratio for recovery (COVID-19 [14]; 95% CI 1.12 to 1.49, p < 0.001): 1.29
- serious adverse events (COVID-19 [14]; 131 of 532 patients, placebo 31.6%): 24.6%
- rate ratio for recovery (COVID-19 [14]; patients with severe disease, 95% CI 1.12 to 1.52): 1.31
- recovery period (COVID-19 [14]; patients with severe disease, versus 18): 11 days
- Kaplan-Meier estimate of mortality by 14 days (COVID-19 [14]; placebo 11.9%): 6.7%
- Kaplan-Meier estimate of mortality at day 29 (COVID-19 [14]; placebo 15.2%): 11.4%
- median recovery time (COVID-19 [14]; placebo 15 days): 10 days

Compound: TCZ: humanized monoclonal antibody that binds the insoluble and soluble receptor of IL-6
- adjusted HR, progression to invasive medical ventilation and/or death (COVID-19 [15]; 14-day period, CI 0.40–0.92, p = 0.020): 0.61
- death rate (COVID-19 [15]; control 20%): 7%
- secondary infections (COVID-19 [15]; control group 4%, p < 0.0001): 24%
- patients dying (COVID-19 [16]; 2 of 62 admitted after TCZ available, 11 of 23 (47.8%) before): 3.2%
- multivariate HR, survival (COVID-19 [16]; CI 0.004–0.347, p = 0.004): 0.035
- progression to invasive medical ventilation (COVID-19 [17]; SOC 32%, p = 0.006): 0%
- mortality (COVID-19 [17]; SOC 48%, p = 0.066): 25%
- progression to death and/or ICU admission (COVID-19 [17]; SOC 72%, p = 0.002): 25%
- HR, survivorship (COVID-19 [18]; 19 studies): 0.41
- HR, survivorship (COVID-19 [18]; excluding studies that administered a steroid alongside TCZ): 0.04
- change in symptoms following treatment (COVID-19 [19]): rapid improvement in symptoms
- rate ratio, hospital discharge within 28 days (COVID-19 [20]; 95% CI 1.12–1.34, p < 0.0001): 1.22
- rate ratio, 28-day mortality (COVID-19 [20]; RECOVERY combined with seven smaller randomized control trials, 95% CI 0.79–0.96, p = 0.005): 0.87
- 28-day mortality (COVID-19 [20]; SOC alone 33%): 29%
- rate ratio, 28-day mortality (COVID-19 [20]; TCZ vs SOC, 95% CI 0.77–0.96, p = 0.007): 0.86
- reduction in 28-day mortality (COVID-19 [20]; combined analysis of RECOVERY with smaller RCTs): 13%
- probability of hospital discharge within 28 days (COVID-19 [20]; living patients, SOC 47%): 54%
- participants with adverse reactions determined to be associated with the intervention (COVID-19 [20]; out of 2,022 participants receiving TCZ): three
- odds ratio of mortality (COVID-19 [21]): 0.453
- mortality, TCZ vs SOC (COVID-19 [22]): did not differ

Compound: bamlanivimab: human mAb derived from convalescent plasma of a recovered COVID-19 patient
- effect on viral load (COVID-19 [23]): able to accelerate the reduction in viral load

Compound: lopinavir-ritonavir
- effect on COVID-19-related mortality (COVID-19 [24]): no effect
- effect on COVID-19 outcomes (COVID-19 [5]): no effect

Compound: poly(I:C)
- effect when administered prior to infection (SARS-CoV-1 [25]): protective effects
